Source: ChEMBL document CHEMBL4842355, “Improved potency of pyridin-2(1H)one derivatives for the treatment of mechanical allodynia” (Eur J Med Chem, 2021)

How the values were obtained:
[1] = molecular target: T1, Mitogen-activated protein kinase 14 (Homo sapiens, UniProt Q16539); test: Inhibition of p38 alpha (unknown origin) assessed as residual activity at 1 uM relative to control
[2] = molecular target: T1, Mitogen-activated protein kinase 14; test: Inhibition of p38 alpha (unknown origin)
[3] = molecular target: T1, Mitogen-activated protein kinase 14; test: Inhibition of p38 alpha (unknown origin) at 1 uM relative to control
[4] = system: Rattus norvegicus; test: Anti-allodynic activity in complete freund's adjuvant-induced rat inflammatory pain model assessed as inhibition of inflammatory mechanical allodynia at 10 uM, ic administered 30 min before CFA injection and measured after 120 mins by Von Frey filament assay relative to control; format: functional; details: 2.5 h, time 150 min

T1 sequence (Q16539 whole entry): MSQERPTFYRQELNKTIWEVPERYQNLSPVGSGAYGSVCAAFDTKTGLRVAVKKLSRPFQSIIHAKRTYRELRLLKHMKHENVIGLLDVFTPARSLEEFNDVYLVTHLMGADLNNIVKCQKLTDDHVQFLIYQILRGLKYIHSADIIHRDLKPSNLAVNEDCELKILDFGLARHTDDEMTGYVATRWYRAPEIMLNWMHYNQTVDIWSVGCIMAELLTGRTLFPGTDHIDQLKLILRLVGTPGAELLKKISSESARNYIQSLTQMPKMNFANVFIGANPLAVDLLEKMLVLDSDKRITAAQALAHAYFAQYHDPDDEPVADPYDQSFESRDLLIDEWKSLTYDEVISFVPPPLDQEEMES

SMILES	Activity [1] [%]	IC50 [2] [nM]	inhibition [3] [%]	inhibition in vivo at 10 µM [4] [%]
O=c1[nH]cc(Nc2ccccc2Br)cc1-c1cccc2[nH]ccc12	45	–	–	–
O=c1[nH]cc(Nc2ccccc2F)cc1-c1cccc2[nH]ccc12	28	–	72	–
COc1ccccc1Nc1c[nH]c(=O)c(-c2cccc3[nH]ccc23)c1	50	–	–	> 80
CCOC(=O)c1ccccc1Nc1c[nH]c(=O)c(-c2cccc3[nH]ccc23)c1	104	–	–	–
O=c1[nH]cc(Nc2ccccc2[N+](=O)[O-])cc1-c1cccc2[nH]ccc12	92.3	–	–	> 80
CCOC(=O)c1cccc(Nc2c[nH]c(=O)c(-c3cccc4[nH]ccc34)c2)c1	81	–	–	> 80
CCOC(=O)c1ccc(Nc2c[nH]c(=O)c(-c3cccc4[nH]ccc34)c2)cc1	86	–	–	–
O=c1[nH]cc(Nc2ccc([N+](=O)[O-])cc2)cc1-c1cccc2[nH]ccc12	93	–	–	98
COc1ccc(Nc2c[nH]c(=O)c(-c3cccc4[nH]ccc34)c2)cc1	59	–	–	16
O=c1[nH]cc(Nc2ccccc2)cc1-c1ccccc1Br	59	–	41	65

Further lines, with some results ahead:

Activity [1] [%]	IC50 [2] [nM]	inhibition [3] [%]	SMILES	inhibition in vivo at 10 µM [4] [%]
43	2400	–	O=c1[nH]cc(Nc2ccc(Br)cc2)cc1-c1cccc2[nH]ccc12	–
73.9	–	–	O=c1[nH]cc(Nc2cccc([N+](=O)[O-])c2)cc1-c1cccc2[nH]ccc12	–
64	–	–	O=c1[nH]cc(Nc2cccnc2)cc1-c1cccc2[nH]ccc12	–
47	1400	–	O=c1[nH]cc(Nc2cccc(F)c2)cc1-c1cccc2[nH]ccc12	> 80
59	–	–	O=c1[nH]cc(Nc2ccccc2)cc1-c1cccc2[nH]ccc12	–
70	–	–	O=c1[nH]cc(Nc2ccccn2)cc1-c1cccc2[nH]ccc12	> 80
67	–	33	O=c1[nH]cc(Nc2ccncc2)cc1-c1cccc2[nH]ccc12	100
34	1000	–	O=c1[nH]cc(Nc2cccc(O)c2)cc1-c1cccc2[nH]ccc12	–
50	–	–	COc1cccc(Nc2c[nH]c(=O)c(-c3cccc4[nH]ccc34)c2)c1	> 80
31	700	–	O=c1[nH]cc(Nc2cccc(Br)c2)cc1-c1cccc2[nH]ccc12	–
33	1100	–	Cc1ccccc1Nc1c[nH]c(=O)c(-c2cccc3[nH]ccc23)c1	> 80
39	400	–	O=c1[nH]cc(Nc2ccc(F)cc2)cc1-c1cccc2[nH]ccc12	> 80
